Consider 27 compounds from patent US8969363B2, “Heterocyclic compounds and uses thereof” (Infinity Pharmaceuticals, Inc., priority 2011, dated 2015).

pIC50: −log10 of the molar value.

Sequence of PI3Kβ (Q8BTI9 whole entry, the tested form may be a part): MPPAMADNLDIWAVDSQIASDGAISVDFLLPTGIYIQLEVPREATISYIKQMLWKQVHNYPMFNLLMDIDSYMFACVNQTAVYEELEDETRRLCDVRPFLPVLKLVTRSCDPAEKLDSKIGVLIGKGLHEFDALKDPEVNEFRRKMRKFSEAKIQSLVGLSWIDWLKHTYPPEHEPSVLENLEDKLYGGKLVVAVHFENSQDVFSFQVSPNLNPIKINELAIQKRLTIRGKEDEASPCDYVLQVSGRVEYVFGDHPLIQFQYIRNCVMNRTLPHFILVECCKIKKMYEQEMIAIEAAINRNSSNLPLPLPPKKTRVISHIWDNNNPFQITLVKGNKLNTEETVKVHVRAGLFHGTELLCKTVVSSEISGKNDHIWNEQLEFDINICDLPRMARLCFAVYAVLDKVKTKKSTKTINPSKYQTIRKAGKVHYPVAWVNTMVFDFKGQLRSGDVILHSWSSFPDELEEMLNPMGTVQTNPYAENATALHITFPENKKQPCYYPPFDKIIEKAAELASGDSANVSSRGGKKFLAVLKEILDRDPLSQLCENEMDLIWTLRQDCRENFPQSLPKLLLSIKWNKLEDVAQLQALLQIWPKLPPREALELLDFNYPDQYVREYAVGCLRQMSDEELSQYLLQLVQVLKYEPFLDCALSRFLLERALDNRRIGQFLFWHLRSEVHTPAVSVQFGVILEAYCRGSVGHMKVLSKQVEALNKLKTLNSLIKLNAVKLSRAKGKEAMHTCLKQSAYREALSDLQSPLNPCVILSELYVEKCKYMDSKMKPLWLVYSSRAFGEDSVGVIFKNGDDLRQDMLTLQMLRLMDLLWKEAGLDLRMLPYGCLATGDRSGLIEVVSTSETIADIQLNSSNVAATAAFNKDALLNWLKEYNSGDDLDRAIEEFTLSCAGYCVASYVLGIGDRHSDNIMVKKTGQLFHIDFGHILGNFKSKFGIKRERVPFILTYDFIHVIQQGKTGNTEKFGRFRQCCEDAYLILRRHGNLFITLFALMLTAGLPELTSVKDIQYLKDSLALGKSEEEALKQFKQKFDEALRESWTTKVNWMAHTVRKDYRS

In one test the target is PI3Kβ. The test is described as follows: PI3 Kinase HTRF assay, PI3Kβ. It counts as biochemical, human. The note with it: 10 μM PIP2, 10 μM ATP; 'Greater than 10 μM' and 'Greater than 1 μM to 10 μM'; read-out: PI3K β IC50. The source says:
A PI3-Kinase HTRF® assay kit (cat No. 33-016) purchased from Millipore Corporation was used to screen compounds provided herein. This assay used specific, high affinity binding of the GRP1 pleckstrin homology (PH) domain to PIP3, the product of a Class 1A or 1B PI3 Kinase acting on its physiological substrate PIP2. During the detection phase of the assay, a complex was generated between the GST-tagged PH domain and biotinylated short chain PIP3. The biotinylated PIP3 and the GST-tagged PH domain recruited fluorophores (Streptavidin-Allophycocyanin and Europium-labeled anti-GST respectively) to form the fluorescence resonance energy transfer (FRET) architecture, generating a stable time-resolved FRET signal. The FRET complex was disrupted in a competitive manner by non-biotinylated PIP3, a product formed in the PI3 Kinase assay.
PI3 Kinase α, β, γ and δ activity was assayed using the PI3 Kinase HTRF® assay kit (catalogue No. 33-016) purchased from Millipore Corporation. […] Purified recombinant PI3K enzyme was used to catalyze the phosphorylation of phosphatidylinositol 4,5-bisphosphate (PIP2 at 10 μM) to phosphatidylinositol 3,4,5-trisphosphate (PIP3) in the presence of 10 μM ATP. The assay was carried out in 384-well format and detected using a Perkin Elmer EnVision Xcite Multilabel Reader. Emission ratios were converted into percent inhibitions and imported into GraphPad Prism software. […] IC50 values were determined using a nonlinear regression model available in GraphPad Prism 5. […]
On the technique in general: TR-FRET usually uses a lanthanide donor and a delayed reading to cut background.
Take `C[C@H](Nc1nc(Cl)nc2cccnc12)c1cc2cccc(-c3cnn(C)c3)c2c(=O)n1-c1ccccc1` [Compound I-35]: the pIC50 (commonly −log10 of the IC50, conventionally taken in molar units) is below 5.00.

`C[C@H](Nc1nc(Cl)nc2cccnc12)c1cc2cccc(-c3cnn(C)c3)c2c(=O)n1-c1cccc(F)c1` [Compound I-37]: the pIC50 is below 5.00.

For the compound `C[C@H](Nc1nc(Cl)nc2cccnc12)c1cc2cccc(-c3cnn(C)c3)c2c(=O)n1C1CC1` [Compound I-39], the pIC50 was below 5.00.

On to `COc1cncc(-c2cccc3cc([C@H](C)Nc4ncnc5cccnc45)n(-c4ccccc4)c(=O)c23)c1` [Compound I-45], for which the pIC50 is below 5.00.

Consider `C[C@H](Nc1ncnc2cccnc12)c1cc2cccc(C(=O)O)c2c(=O)n1-c1ccccc1` [Compound I-62], for which the pIC50 was below 5.00.

For the compound `Cc1ccnc2cc(C(C)Nc3ncnc4cccnc34)n(-c3ccccc3)c(=O)c12` (stereo not drawn) [Compound I-65], the pIC50 is 5.00 to 6.00.

For the compound `COc1nc(N[C@@H](C)c2cc3cccc(Cl)c3c(=O)n2-c2ccccc2)c2ncccc2n1` [Compound I-71], the pIC50 was below 5.00.

In the case of `COc1ncc(-c2cccc3cc([C@H](C)Nc4nc(OC)nc5cccnc45)n(-c4ccccc4)c(=O)c23)cn1` [Compound I-72], the pIC50 was below 5.00.

`COc1ncc(-c2cccc3cc([C@H](C)Nc4nc(O)nc5cccnc45)n(-c4ccccc4)c(=O)c23)cn1` [Compound I-77]: the negative-log IC50 (pIC50) was below 5.00.

As for `COc1ccc(CNc2nc(N[C@@H](C)c3cc4cccc(-c5cnc(OC)nc5)c4c(=O)n3-c3ccccc3)c3ncccc3n2)cc1` [Compound I-93], the negative logarithm of the IC50 (pIC50) is 5.00 to 6.00.

For the compound `Cc1ncc(-c2cccc3cc([C@H](C)Nc4nc(N)nc5cccnc45)n(-c4ccccc4)c(=O)c23)s1` [Compound I-94], the pIC50 was 5.00 to 6.00.

With `C[C@H](Nc1cc(Cl)nn2ccnc12)c1cc2cccc(-c3cnn(C)c3)c2c(=O)n1-c1cccc(F)c1` [II-16], the pIC50 is below 5.00.

Take `C[C@H](Nc1ccnc2ccnn12)c1cc2scc(-c3cnn(C)c3)c2c(=O)n1-c1ccccc1` [II-21]: the pIC50 was below 5.00.

`C[C@H](Nc1ccnn2ccnc12)c1cc2scc(-c3cnn(C)c3)c2c(=O)n1-c1ccccc1` [II-23]: the pIC50 was below 5.00.

Take `COc1ncc(-c2cccc3cc([C@H](C)Nc4ccnc5ccnn45)n(-c4ccccc4)c(=O)c23)cn1` [II-47]: the pIC50 is below 5.00.

For the compound `C[C@H](Nc1ncnc2ccnn12)c1cc2cccc(C(F)(F)F)c2c(=O)n1-c1ccccc1` [III-21], the pIC50 was 5.00 to 6.00.

For `C[C@H](Nc1nc(Cl)nc2scnc12)c1cc2cccc(C(F)(F)F)c2c(=O)n1-c1ccccc1` [III-24], the pIC50 was 5.00 to 6.00.

With `C[C@H](Nc1nc(N)ncc1C(F)(F)F)c1cc2cccc(C(F)(F)F)c2c(=O)n1-c1ccccc1` [III-32], the pIC50 was 5.00 to 6.00.

As for `C[C@H](Nc1nc(O)nc2cccnc12)c1cc2cccc(C(F)(F)F)c2c(=O)n1-c1cccc(F)c1` [III-47], the pIC50 is below 5.00.

`C[C@H](Nc1nc(O)nc2[nH]cnc12)c1cc2cccc(C(F)(F)F)c2c(=O)n1-c1cccc(F)c1` [III-48]: the pIC50 is below 5.00.

Regarding `C[C@H](Nc1nccc2nccn12)c1cc2cccc(Cl)c2c(=O)n1-c1ccccc1` [IV-4], the pIC50 is below 5.00.

Turning to `C[C@H](Nc1ncnc2cnccc12)c1cc2cccc(Cl)c2c(=O)n1-c1ccccc1` [IV-5], the pIC50 was below 5.00.

As to `C[C@H](Nc1ccn2nccc2n1)c1cc2cccc(Cl)c2c(=O)n1-c1ccccc1` [IV-6], the pIC50 was below 5.00.

For `C[C@H](NCc1cccnc1N)c1cc2cccc(Cl)c2c(=O)n1-c1ccccc1` [IV-8], the pIC50 was below 5.00.

In the case of `C[C@H](Nc1ncc(C(F)(F)F)c(N)n1)c1cc2cccc(Cl)c2c(CCN2CCOCC2)n1` [IV-10], the pIC50 is below 5.00.

Consider `C[C@H](Nc1cc(Cl)ncc1C(N)=O)c1cc2cccc(Cl)c2c(=O)n1-c1ccccc1` [IV-21], for which the pIC50 was below 5.00.

The same test, now with this note: 10 μM PIP2, 10 μM ATP; 'Less than 100 nM'; read-out: PI3K β IC50.
For the compound `C[C@H](Nc1nc(N)nc2cccnc12)c1cc2cccc(Cl)c2c(=O)n1-c1ccccc1` [Compound I-92], the pIC50 is above 7.00.
